Measurements: patent publication US20250171438A1 (Agios Pharmaceuticals, Inc., priority 2022, published 2025)

Target: T1, human PAH with the R408W mutation (Homo sapiens, UniProt P00439, R408W)
T1 construct: expressed in transfected cells
T1 sequence (P00439 1-452 R408W): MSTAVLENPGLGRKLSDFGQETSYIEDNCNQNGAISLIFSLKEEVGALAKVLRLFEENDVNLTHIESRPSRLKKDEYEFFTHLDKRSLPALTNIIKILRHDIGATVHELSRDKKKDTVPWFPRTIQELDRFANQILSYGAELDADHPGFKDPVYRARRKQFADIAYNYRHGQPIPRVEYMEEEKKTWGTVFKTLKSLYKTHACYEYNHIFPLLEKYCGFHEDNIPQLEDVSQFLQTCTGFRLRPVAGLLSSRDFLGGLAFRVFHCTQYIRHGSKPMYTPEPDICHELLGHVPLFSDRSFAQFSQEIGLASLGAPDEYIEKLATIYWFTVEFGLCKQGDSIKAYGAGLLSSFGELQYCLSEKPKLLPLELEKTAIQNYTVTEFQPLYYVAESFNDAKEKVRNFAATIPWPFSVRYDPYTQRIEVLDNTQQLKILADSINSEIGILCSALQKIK
Assay: Cell Based Phenylalanine Flux Assay
Details: A375 cells expressing human R408W PAH; 24 hrs compound incubation; 13C-Tyrosine by LC-MS; average where tested multiple times; read-out: AC50

Row | Structure (SMILES) | AC50
1 | O=C(CC1CC1)N1CCc2[nH]cnc2[C@@H]1c1nc2ccc(F)cc2[nH]1 [Example 963, (R)-2-cyclopropyl-1-(4-(6-fluoro-1H-benzo[d]imidazol-2-yl)-6,7-dihydro-1H-imidazo[4,5-c]pyridin-5(4H)-yl)ethanone] | 1 to 5 µM
2 | O=C(CC1CC1)N1CCc2[nH]cnc2[C@H]1c1nc2ccc(F)cc2[nH]1 [Example 964, (S)-2-cyclopropyl-1-(4-(6-fluoro-1H-benzo[d]imidazol-2-yl)-6,7-dihydro-1H-imidazo[4,5-c]pyridin-5(4H)-yl)ethanone] | 0.5 to 1 µM
3 | O=C(c1cnn2ccc(Cl)cc12)N1CCc2[nH]cnc2[C@H]1c1nc2ccc(Br)cc2[nH]1 [Example 965, (S)-(4-(6-bromo-1H-benzo[d]imidazol-2-yl)-6,7-dihydro-1H-imidazo[4,5-c]pyridin-5(4H)-yl)(5-chloropyrazolo[1,5-a]pyridin-3-yl)methanone] | 1 to 5 µM
4 | O=C(c1cnn2ccc(Cl)cc12)N1CCc2[nH]cnc2[C@@H]1c1nc2ccc(Br)cc2[nH]1 [Example 966, (R)-(4-(6-bromo-1H-benzo[d]imidazol-2-yl)-6,7-dihydro-1H-imidazo[4,5-c]pyridin-5(4H)-yl)(5-chloropyrazolo[1,5-a]pyridin-3-yl)methanone] | > 5 µM
5 | O=C(c1cnn2cc(F)ccc12)N1CCc2[nH]cnc2[C@H]1c1nc2ccc(Br)cc2[nH]1 [Example 967, (S)-(4-(6-bromo-1H-benzo[d]imidazol-2-yl)-6,7-dihydro-1H-imidazo[4,5-c]pyridin-5(4H)-yl)(6-fluoropyrazolo[1,5-a]pyridin-3-yl)methanone] | 0.5 to 1 µM
6 | O=C(c1ccon1)N1CCc2[nH]cnc2[C@H]1c1nc2ccc(Cl)cc2[nH]1 [Example 969, (S)-(4-(6-chloro-1H-benzo[d]imidazol-2-yl)-6,7-dihydro-1H-imidazo[4,5-c]pyridin-5(4H)-yl)(isoxazol-3-yl)methanone] | 0.5 to 1 µM
7 | O=C(c1ccon1)N1CCc2[nH]cnc2[C@@H]1c1nc2ccc(Cl)cc2[nH]1 [Example 970, (R)-(4-(6-chloro-1H-benzo[d]imidazol-2-yl)-6,7-dihydro-1H-imidazo[4,5-c]pyridin-5(4H)-yl)(isoxazol-3-yl)methanone] | 1 to 5 µM
8 | Brc1ccc2nc([C@@H]3c4nc[nH]c4CCN3Cc3nccs3)[nH]c2c1 [Example 971, (S)-2-((4-(6-bromo-1H-benzo[d]imidazol-2-yl)-6,7-dihydro-1H-imidazo[4,5-c]pyridin-5(4H)-yl)methyl)thiazole] | < 0.5 µM
9 | Fc1ccc2nc([C@@H]3c4nc[nH]c4CCN3Cc3nccs3)[nH]c2c1 [Example 974, (S)-2-((4-(6-fluoro-1H-benzo[d]imidazol-2-yl)-6,7-dihydro-1H-imidazo[4,5-c]pyridin-5(4H)-yl)methyl)thiazole] | < 0.5 µM
10 | O=C(c1ncc(Cl)s1)N1CCc2[nH]cnc2[C@H]1c1nc2ccc(Br)cc2[nH]1 [Example 975, (S)-(4-(6-bromo-1H-benzo[d]imidazol-2-yl)-6,7-dihydro-1H-imidazo[4,5-c]pyridin-5(4H)-yl)(5-chlorothiazol-2-yl)methanone] | 0.5 to 1 µM
11 | O=C(c1ncc(Cl)s1)N1CCc2[nH]cnc2[C@@H]1c1nc2ccc(Br)cc2[nH]1 [Example 976, (R)-(4-(6-bromo-1H-benzo[d]imidazol-2-yl)-6,7-dihydro-1H-imidazo[4,5-c]pyridin-5(4H)-yl)(5-chlorothiazol-2-yl)methanone] | > 5 µM
12 | O=C(c1nncs1)N1CCc2[nH]cnc2[C@H]1c1nc2ccc(Br)cc2[nH]1 [Example 977, (S)-(4-(6-bromo-1H-benzo[d]imidazol-2-yl)-6,7-dihydro-1H-imidazo[4,5-c]pyridin-5(4H)-yl)(1,3,4-thiadiazol-2-yl)methanone] | 0.5 to 1 µM
13 | O=C(c1nncs1)N1CCc2[nH]cnc2[C@@H]1c1nc2ccc(Br)cc2[nH]1 [Example 978, (R)-(4-(6-bromo-1H-benzo[d]imidazol-2-yl)-6,7-dihydro-1H-imidazo[4,5-c]pyridin-5(4H)-yl)(1,3,4-thiadiazol-2-yl)methanone] | > 5 µM
14 | Clc1cnc(CN2CCc3[nH]cnc3[C@@H]2c2nc3ccccc3[nH]2)s1 [Example 979, (R)-2-((4-(1H-benzo[d]imidazol-2-yl)-6,7-dihydro-1H-imidazo[4,5-c]pyridin-5(4H)-yl)methyl)-5-chlorothiazole] | > 5 µM
15 | Clc1cnc(CN2CCc3[nH]cnc3[C@H]2c2nc3ccccc3[nH]2)s1 [Example 980, (S)-2-((4-(1H-benzo[d]imidazol-2-yl)-6,7-dihydro-1H-imidazo[4,5-c]pyridin-5(4H)-yl)methyl)-5-chlorothiazole] | 0.5 to 1 µM
16 | O=C(c1ccon1)N1CCc2[nH]cnc2[C@H]1c1nc2ccc(Br)cc2[nH]1 [Example 981, (S)-(4-(6-bromo-1H-benzo[d]imidazol-2-yl)-6,7-dihydro-1H-imidazo[4,5-c]pyridin-5(4H)-yl)(isoxazol-3-yl)methanone] | < 0.5 µM
17 | O=C(c1ccon1)N1CCc2[nH]cnc2[C@@H]1c1nc2ccc(Br)cc2[nH]1 [Example 982, (R)-(4-(6-bromo-1H-benzo[d]imidazol-2-yl)-6,7-dihydro-1H-imidazo[4,5-c]pyridin-5(4H)-yl)(isoxazol-3-yl)methanone] | 1 to 5 µM

The remaining lines, values ahead:

Row | AC50 | Structure (SMILES)
18 | > 5 µM | O=C(c1nccs1)N1CCc2[nH]cnc2[C@@H]1c1nc2cccc(Cl)c2[nH]1 [Example 983, (R)-(4-(7-chloro-1H-benzo[d]imidazol-2-yl)-6,7-dihydro-1H-imidazo[4,5-c]pyridin-5(4H)-yl)(thiazol-2-yl)methanone]
19 | 0.5 to 1 µM | O=C(c1nccs1)N1CCc2[nH]cnc2[C@H]1c1nc2cccc(Cl)c2[nH]1 [Example 984, (S)-(4-(7-chloro-1H-benzo[d]imidazol-2-yl)-6,7-dihydro-1H-imidazo[4,5-c]pyridin-5(4H)-yl)(thiazol-2-yl)methanone]
20 | > 5 µM | O=C(c1cnn2ccccc12)N1CCc2[nH]cnc2[C@@H]1c1nc2cccc(Cl)c2[nH]1 [Example 985, (R)-(4-(7-chloro-1H-benzo[d]imidazol-2-yl)-6,7-dihydro-1H-imidazo[4,5-c]pyridin-5(4H)-yl)(pyrazolo[1,5-a]pyridin-3-yl)methanone]
21 | 0.5 to 1 µM | O=C(c1cnn2ccccc12)N1CCc2[nH]cnc2[C@H]1c1nc2cccc(Cl)c2[nH]1 [Example 986, (S)-(4-(7-chloro-1H-benzo[d]imidazol-2-yl)-6,7-dihydro-1H-imidazo[4,5-c]pyridin-5(4H)-yl)(pyrazolo[1,5-a]pyridin-3-yl)methanone]
22 | > 5 µM | c1ccc2[nH]c([C@H]3c4nc[nH]c4CCN3c3nc4ccccc4o3)nc2c1 [Example 987, (R)-2-(4-(1H-benzo[d]imidazol-2-yl)-6,7-dihydro-1H-imidazo[4,5-c]pyridin-5(4H)-yl)benzo[d]oxazole]
23 | < 0.5 µM | c1ccc2[nH]c([C@@H]3c4nc[nH]c4CCN3c3nc4ccccc4o3)nc2c1 [Example 988, (S)-2-(4-(1H-benzo[d]imidazol-2-yl)-6,7-dihydro-1H-imidazo[4,5-c]pyridin-5(4H)-yl)benzo[d]oxazole]
24 | 0.5 to 1 µM | O=C(c1cnc(-c2ccccn2)s1)N1CCc2[nH]cnc2[C@H]1c1nc2ccccc2[nH]1 [Example 989, (S)-(4-(1H-benzo[d]imidazol-2-yl)-6,7-dihydro-1H-imidazo[4,5-c]pyridin-5(4H)-yl)(2-(pyridin-2-yl)thiazol-5-yl)methanone]
25 | 0.5 to 1 µM | O=C(c1cnn2ccccc12)N1CCc2[nH]cnc2[C@H]1c1nc2cccc(F)c2[nH]1 [Example 990, (S)-(4-(7-fluoro-1H-benzo[d]imidazol-2-yl)-6,7-dihydro-1H-imidazo[4,5-c]pyridin-5(4H)-yl)(pyrazolo[1,5-a]pyridin-3-yl)methanone]
26 | > 5 µM | O=C(c1cnn2ccccc12)N1CCc2[nH]cnc2[C@@H]1c1nc2cccc(F)c2[nH]1 [Example 991, (R)-(4-(7-fluoro-1H-benzo[d]imidazol-2-yl)-6,7-dihydro-1H-imidazo[4,5-c]pyridin-5(4H)-yl)(pyrazolo[1,5-a]pyridin-3-yl)methanone]
27 | > 5 µM | Cc1ncoc1C(=O)N1CCc2[nH]cnc2[C@@H]1c1nc2ccccc2[nH]1 [Example 992, (R)-(4-(1H-benzo[d]imidazol-2-yl)-6,7-dihydro-1H-imidazo[4,5-c]pyridin-5(4H)-yl)(4-methyloxazol-5-yl)methanone]
28 | < 0.5 µM | Cc1ncoc1C(=O)N1CCc2[nH]cnc2[C@H]1c1nc2ccccc2[nH]1 [Example 993, (S)-(4-(1H-benzo[d]imidazol-2-yl)-6,7-dihydro-1H-imidazo[4,5-c]pyridin-5(4H)-yl)(4-methyloxazol-5-yl)methanone]
29 | < 0.5 µM | O=C(c1ocnc1C(F)(F)F)N1CCc2[nH]cnc2[C@H]1c1nc2ccccc2[nH]1 [Example 994, (S)-(4-(1H-benzo[d]imidazol-2-yl)-6,7-dihydro-1H-imidazo[4,5-c]pyridin-5(4H)-yl)(4-(trifluoromethyl)oxazol-5-yl)methanone]
30 | 0.5 to 1 µM | O=C(c1oc(-c2ccccn2)nc1C1CC1)N1CCc2[nH]cnc2[C@H]1c1nc2ccccc2[nH]1 [Example 995, (S)-(4-(1H-benzo[d]imidazol-2-yl)-6,7-dihydro-1H-imidazo[4,5-c]pyridin-5(4H)-yl)(4-cyclopropyl-2-(pyridin-2-yl)oxazol-5-yl)methanone]
31 | 1 to 5 µM | O=C(CCc1ncc(Cl)s1)N1CCc2[nH]cnc2[C@H]1c1nc2ccccc2[nH]1 [Example 996, (S)-1-(4-(1H-benzo[d]imidazol-2-yl)-1,4,6,7-tetrahydro-5H-imidazo[4,5-c]pyridin-5-yl)-3-(5-chlorothiazol-2-yl)propan-1-one]
